Assay results reported in patent US12042560B2, “Liposome composition” (Eisai R&D Management Co., Ltd., priority 2009, dated 2024).
Counter-ions that a name gives are not always drawn.

What was measured:
[1] = test system: FaDu human pharyngeal squamous cell carcinoma line; assay: In vivo antitumor activity in FaDu cancer-bearing nude mice; settings: free bodies, 4 mg/kg, caudal vein, 3 times in 7-day intervals, FIG. 2
Procedure: (§1) FaDu (obtained from the American Type Culture Collection), which is a human pharyngeal squamous cell carcinoma line, was cultured and grown in a 10% bovine fetal serum-containing MEM culture. The cells were separated from the flask using 0.05% Trypsin-EDTA solution and collected. After washing with PBS, the cells were suspended in PBS so as to be 5×10^7 cells/mL and kept on ice. 0.1 mL of cell suspension liquid were subcutaneously injected in the right ventral portion of 6-week old nude mice (Charles River Laboratories Japan, Inc.). Each mouse was observed daily, and notes were made appropriately in cases where abnormal conditions were found. Calipers were used to measure the tumor size over time, and the tumor size was calculated based on the calculation formula: major axis×(minor axis squared)÷2. At the point when the tumor size was 100 to 200 mm^3, the mice were separated into groups such that the average values of the tumor sizes and the mouse body weights were uniform among the test groups (five mice per test group), and the drug was administered into the caudal vein (0.2 mL/20 g; 3 times in 7-day intervals).

[2] = test system: ACHN human renal cancer cell line; assay: In vivo antitumor activity in ACHN cancer-bearing nude mice; settings: free body, 2 mg/kg, 3 mg/kg and 4 mg/kg, 45 days after the start of sample administration, FIG. 3
Procedure: ACHN (obtained from the American Type Culture Collection), which is a human renal cancer cell line, was cultured and grown in a 10% bovine fetal serum-containing MEM culture. The cells were separated from the flask using 0.05% Trypsin-EDTA solution and collected. After washing with PBS, the cells were suspended in PBS so as to be 5×10^7 cells/mL and then kept on ice. 0.1 mL of cell suspension liquid were subcutaneously injected in the right ventral portion of 6-week old nude mice (Charles River Laboratories Japan, Inc.). Each mouse was observed daily, and notes made appropriately in cases where abnormal conditions were found. Calipers were used to measure the tumor size over time, and the tumor size was calculated based on the calculation formula: major axis×(minor axis squared)÷2. At the point when the tumor size was 150 to 200 mm^3, the mice were separated into groups such that the average values of the tumor sizes and the body weights of mice were uniform among the test groups (five mice per test group), and the drug was administered into the caudal vein (0.2 mL/20 g; 3 times in 7-day intervals).

[3] = Maximum tolerated dose in nude mice; settings: mouse, in vivo, intravenous, free bodies
Procedure: as §1, with “At the point when the tumor size was 100 to 200 mm^3, the mice were separated into groups such that the average values of the tumor sizes and the mouse body weights were uniform among the test groups (five mice per test group), and the drug was administered into the caudal vein (0.2 mL/20 g; 3 times in 7-day intervals).” left out
ACHN (obtained from the American Type Culture Collection), which is a human renal cancer cell line, was cultured and grown in a 10% bovine fetal serum-containing MEM culture. […] Calipers were used to measure the tumor size over time, and the tumor size was calculated based on the calculation formula: major axis×(minor axis squared)÷2. […]

With `C=C1C[C@@H]2CC[C@@]34C[C@H]5O[C@H]6[C@@H](O3)[C@H]3O[C@H](CC[C@@H]3O[C@H]6[C@H]5O4)CC(=O)C[C@@H]3[C@@H](OC)[C@@H](C[C@H](O)CN)O[C@H]3C[C@H]3O[C@@H](CC[C@@H]1O2)C[C@@H](C)C3=C` [Eribulin mesylate, eribulin mesylate] the “Tumor-reducing effect (average tumor volume)” value [1] was “a tumor-reducing effect was not obtained”, the “Tumor volume versus non-treated group” value [2] was “no significant difference was found” and the MTD [3] was 4 mg/kg.
